Assay results taken from patent US20100143992A1, “Process for Fermentive Preparation of Alcohols and Recovery of Product” (E. I du Pont de Nemours and Company, priority 2008, published 2010).

Legend:
[1] = Extraction of ethanol from an aqueous solution by ionic liquid; assay type: physicochemical; details: 5 vol % ionic liquid; for g/L ethanol left in solution / mM Ethanol (in solution after extraction): 3 mL aqueous solution, about 31 g/L ethanol, overnight equilibration; for g/L ethanol left in solution: control 30.2; for mM Ethanol (in solution after extraction): control 655; for % EthOH Extracted: percentage of alcohol remaining in control
Procedure: (§2) The extraction of ethanol and isobutanol from an aqueous solution by selected ionic liquids was evaluated. […] Ethanol and isobutanol concentration in the solution was measured using HPLC as described above following thorough mixing and overnight equilibration of the contents of the vial.

[2] = tested on: Lactobacillus fermentum (ATCC 14931); assay: Glucose Uptake Index (GUI) of culture grown with ionic liquid; assay type: cell-based; details: 5% (v/v) ionic liquid, 16 hours at 30° C., GUI of control without ionic liquid 55.9
Procedure: (§1) After 24 hours the test tube was removed and used immediately.

[3] = tested on: Lactobacillus zeae (ATCC 15820); assay: as above; assay type: cell-based; details: 5% (v/v) ionic liquid, 16 hours at 30° C., GUI of control without ionic liquid 61.9
Procedure: as §1

[4] = Extraction of isobutanol from an aqueous solution by ionic liquid; assay type: physicochemical; details: 5 vol % ionic liquid; for g/L isobutanol left in solution / mM isobutanol (in solution after extraction): 3 mL aqueous solution, about 31 g/L isobutanol, overnight equilibration; for g/L isobutanol left in solution: control 32.3; for mM isobutanol (in solution after extraction): control 436; for % isobutanol Extracted: percentage of alcohol remaining in control
Procedure: as §2

| Compound | g/L ethanol left in solution [1] | mM Ethanol (in solution after extraction) [1] | % EthOH Extracted [1] | GUI of Sample (Glucose Utilization Index in the presence of ionic liquid phase) [2] | GUI of Sample (Glucose Utilization Index in the presence of ionic liquid phase) [3] | g/L isobutanol left in solution [4] | mM isobutanol (in solution after extraction) [4] | % isobutanol Extracted [4] |
| --- | --- | --- | --- | --- | --- | --- | --- | --- |
| CCOCC[N+](C)(C)CCN1C(=O)CCC1C (centres unmarked) [[MeDMEEAP] [Tf2N]] [1-(N,N,N-dimethyl(ethylethoxy)aminoethyl)-5-methyl-pyrrolidine-2-one bis(trifluoromethane)-sulfonamide] | 29.4 g/L | 637 mM | 2.66% | 37.6 | 49.5 | 29.5 g/L | 398 mM | 9.48% |
| CC1CCC(=O)N1CC[N+](C)(C)CCO.O=S(=O)([N-]S(=O)(=O)C(F)(F)F)C(F)(F)F (centres unmarked) [[MeDHEAP] [Tf2N], 1-(N,N,N-dimethyl(hydroxyethyl)aminoethyl)-5-methylpyrrolidone-2-one bis(trifluoromethane)sulfonamide] |  |  |  |  |  | 30.9 g/L | 417 mM | 4.68% |
| 1-Butyl-3-methylimidazolium levulinate [[BMIM] [Lev]] | 27.5 g/L | 596 mM | 8.95% |  |  |  |  |  |
| 1-Ethyl-3-methylimidazolium levulinate [[EMIM] [Lev]] |  |  |  | 32.3 | 41.4 |  |  |  |
| COCC[N+](C)(C)CCN1C(=O)CCC1C (centres unmarked) [[MeDMMEAP] [HFPS], 1-(N,N,N-dimethyl(methylethoxy)aminoethyl)-5-methylpyrrolidin-2-one hexafluoropropanesulfonate] | 29.7 g/L | 645 mM | 1.48% | 31.3 | 45.1 | 31.4 g/L | 423 mM | 3.00% |
| CCOCC[N+](C)(C)CCN1C(=O)CCC1C (centres unmarked) [[MeDMEEAP] [HFPS]] [1-(N,N,N-dimethyl(ethylethoxy)aminoethyl)-5-methyl-pyrrolidine-2-one hexafluoropropanesulfonate] | 30.2 g/L | 656 mM | 0.00% | 34.5 | 46.9 | 31.3 g/L | 422 mM | 3.38% |
| CCC[N+](C)(C)CCN1C(=O)CCC1C.O=S(=O)([N-]S(=O)(=O)C(F)(F)F)C(F)(F)F (centres unmarked) [[MeDMPAP] [Tf2N], 1-(N,N,N-dimethylpropylaminoethyl)-5-methylpyrrolidone-2-one bis(trifluoromethane)sulfonamide] |  |  |  |  |  | 28.7 g/L | 387 mM | 12.7% |
| COCC[N+](C)(C)CCN1C(=O)CCC1C.O=S(=O)([N-]S(=O)(=O)C(F)(F)F)C(F)(F)F (centres unmarked) [[[MeDMMEAP] [Tf2N], 1-(N,N,N-dimethyl(methylethoxy)aminoethyl)-5-methylpyrrolidone-2-one bis(trifluoromethane)sulfonamide] | 29.6 g/L | 643 mM | 1.88% |  |  | 28.8 g/L | 389 mM | 12.1% |
